Laboratory results published in article PMC11679778, “Jeju Citrus (Citrus unshiu) Leaf Extract and Hesperidin Inhibit Small Intestinal α-Glucosidase Activities In Vitro and Postprandial Hyperglycemia in Animal Model” (International Journal of Molecular Sciences, 2024).

Tests used:
[1] = target: T1, rat small intestinal α-glucosidase; assay: pNPG hydrolysis, absorbance […] nm; assay type: biochemical; conditions: crude rat intestinal acetone powder supernatant; pNPG substrate; 0.1 M phosphate pH 6.9, 37 °C
T1 construct: gene Mgam; native; crude supernatant of commercial rat intestinal acetone powder (Sigma-Aldrich), not purified; pNPG as substrate

[2] = target: T2, maltase (rat small intestinal); assay: liberated glucose by glucose oxidase method; assay type: biochemical; conditions: crude rat intestinal acetone powder supernatant; maltose substrate; 0.1 M phosphate pH 7.0
T2 construct: gene Mgam; native; crude supernatant of commercial rat intestinal acetone powder (Sigma-Aldrich), not purified; maltose as substrate
Excerpt: liberated glucose by glucose oxidase method on maltase (rat small intestinal)

COc1ccc([C@@H]2CC(=O)c3c(O)cc(O[C@@H]4O[C@H](CO[C@@H]5O[C@@H](C)[C@H](O)[C@@H](O)[C@H]5O)[C@@H](O)[C@H](O)[C@H]4O)cc3O2)cc1O [hesperidin] was tested, and the HP [1] was 0.99 ± 0.14 mg/mL and the HP [2] was 1.04 ± 0.03 mg/mL.
